# “And” between values parts separate entries of the source, which are not always exact repeats. Equal entries are not always repeated. Where two headings read alike, the source gives them in different places.
# How the values were obtained:
# [1] = tested on: VM46 (resistant variant of human colon carcinoma HCT 116); assay: In vitro cytotoxicity, cell colony formation assay, VM46; format: cell-based; conditions: 72 h drug incubation
# Procedure: (§1) The cells were incubated in a CO2 incubator at 37° C. for 5 h for attachment to the bottom of Petri dishes. The compound of the present invention was made up fresh in medium at ten times the final concentration, and then 0.3 mL of this stock solution was added to the 2.7 mL of medium in the dish. The cells were then incubated with drugs for 72 h at 37° C. At the end of incubation the drug-containing media were decanted, the dishes were rinsed with 4 mL of Hank's Balance Salt Solution (HBSS), 5 mL of fresh medium was added, and the dishes were returned to the incubator for colony formation. The cell colonies were counted using a colony counter after incubation for 7 days. Cell survival was calculated and the values of IC50 (the drug concentration producing 50% inhibition of colony formation) were determined for each tested compound.
# Identical assessments were carried out using VM46 (resistant variant of human colon carcinoma HCT 116 obtained from Dr. Li-Xi, M.D, Ph.D., California Pacific Medical Center, CA).
# [2] = tested on: human pancreatic tumor xenograft Panc-1; conditions: for No. of CR / No. of LTTES / No. of PR: 6 mice; for Median TTE: endpoint 1200 mg; for Efficacy Score = 10*(TWd1−TWdn)/TWd1: best score 10; for No. of NTR / No. of TR: mouse, in vivo, po;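 for all read-outs here: Panc-1 fragments grown subcutaneously in athymic nude mice, one oral dose given on Day 1, six mice per group, tumor endpoint 1200 mm^3, control is Group 1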
# Procedure: The tumor used for this study was maintained in athymic nude mice. A tumor fragment (1 mm^3) was implanted s.c. into the right flank of each test mouse. Tumors were monitored twice weekly and then daily as their volume approached 200-400 mm^3 with a mean of 250-300 mm^3. On Day 1 of the study, the animals were sorted into treatment groups with tumor sizes of 171.5-320.0 mm^3 and group mean tumor sizes of 212.6-216.0 mm^3. Tumor size, in mm^3, was calculated from the following formula:
# [formula] where w=width and l=length in mm of the tumor. Tumor weight was estimated with the assumption that 1 mg is equivalent to 1 mm^3 of tumor volume. […] All treatments were administered orally, once on Day 1 (qd×1). […] In all groups, the dosing volume of 0.6 mL/20 g mouse was scaled to the body weight of each animal. Each animal was euthanized when its neoplasm reached the predetermined endpoint size (1200 mm^3). The time to endpoint (TTE) for each mouse was calculated by the following equation:
# [formula] where TTE is expressed in days, endpoint volume is in mm^3, b is the intercept, and m is the slope of the line obtained by linear regression of a log-transformed tumor growth data set. The data set is comprised of the first observation that exceeded the study endpoint volume and the three consecutive observations that immediately preceded the attainment of the endpoint volume. […] Animals classified as TR (treatment-related) deaths or NTRM (non-treatment-related metastasis) deaths are assigned a TTE value equal to the day of death. Animals classified as NTR (non-treatment-related) deaths are excluded from TTE calculations. Treatment efficacy was determined from tumor growth delay (TGD), which is defined as the increase in the median TTE for a treatment group compared to the control group: TGD=T−C, expressed in days, or as a percentage of the median TTE of the control group:
# [formula] where: • T=median TTE for a treatment group and • C=median TTE for control Group 1.
# Treatment may cause partial regression (PR) or complete regression (CR) of the tumor in an animal. In a PR response, the tumor volume is 50% or less of its Day 1 volume for three consecutive measurements during the course of the study, and equal to or greater than 13.5 mm^3 for one or more of these three measurements. In a CR response, the tumor volume is less than 13.5 mm^3 for three consecutive measurements during the course of the study. An animal with a CR response at the termination of a study is additionally classified as a long-term tumor-free survivor (LTTFS).
# With respect to toxicity, the animals were weighed daily on Days 1-5, then twice weekly until the completion of the study. The mice were examined frequently for overt signs of any adverse, drug-related side effects. Acceptable toxicity for the maximum tolerated dose (MTD) of a cancer drug in mice is defined by the NCl as a group mean body-weight (BW) loss of less than 20% during the test, and not more than one toxic death among ten treated animals. The log rank test was employed to analyze the significance of the difference between the TTE values of a drug-treated group and the vehicle-treated control group. The log rank test analyzes the data for all animals except the NTR deaths. The two-tailed statistical analyses were conducted at P=0.05. The group median tumor growth curves show the median tumor volume (MTV) as a function of time. When an animal exited the study due to tumor size or TR death, the final tumor volume recorded for the animal was included with the data used to calculate the median volume at subsequent time points.
# [3] = tested on: HCT 116 human colon carcinoma; assay: In vitro cytotoxicity, cell colony formation assay, HCT116; format: cell-based; conditions: 72 h drug incubation
# Procedure: as §1
# [4] = tested on: HT29 (human colon carcinoma) xenograft; conditions: for Efficacy Score = 10*(TWd1−TWdn)/TWd1: single dose IV
# Excerpt: Score=10*(TWd1−TWdn)/TWd1, where
# TWd1=tumor weight on day 1
# TWDn=lowest tumor weight on day 10 or later
# Thus the best score for complete regression would be 10.
# [5] = tested on: Sprague-Dawley rats; assay: In vivo toxicity assessment in rats, oral; design: species or system rat
# Procedure: Toxicity was assessed in 250-300g Sprague-Dawley rats and three rats were used per dose group. Three dose groups of the test compound, (i.e., 3 mg/kg, 9 mg/kg and 12 mg/kg for intravenous administration; 15 mg/kg, 30 mg/kg and 40 mg/kg) and 1 control group constituted a study. Animals were observed and clinical chemistry data collected at days 4 and 10. Rats were euthanized on day 11 and the nerves were excised and fixed upon euthanization for further examination.
# Each rat is scored as described below and a final toxicity score that incorporates all parameters is assigned. A dead rat is assigned a score of zero. Most of the parameters contribute a positive value towards a total possible score of 130. For body weight, white blood cell, and platelet decreases, recovery is considered. […] The total score is divided by 13 to put it on a scale from 0 to 10.
# [6] = Panc-1, Group 2: 120 mg/kg po qd × 1
# [7] = Panc-1, Group 2: 120 mg/kg po qd × 1, 120 mg/kg
# [8] = Panc-1, Group 3: 60 mg/kg po qd × 1
# [9] = Panc-1, Group 3: 60 mg/kg po qd × 1, 60 mg/kg
# [10] = Group 5: 120 mg/kg IV QD × 1 in 5% E-95% I-20, 6 mice
# [11] = Group 6: 60 mg/kg IV QD × 1 in 5% E-95% I-20, 6 mice
# [12] = Group 7: 120 mg/kg IV QD × 1 in 5% ET in Saline, 6 mice
# [13] = Group 8: 60 mg/kg IV QD × 1 in 5% ET in Saline, 6 mice
# [14] = Group 9: 120 mg/kg IV QD × 1 in 5% EC in Saline, 6 mice
# [15] = Group 10: 60 mg/kg IV QD × 1 in 5% EC in Saline, 6 mice
# [16] = Group 14: 30 mg/kg IV Q4d × 4 in 5% E-95% I-20, 6 mice
# [17] = Group 15: 20 mg/kg IV Q4d × 4 in 5% E-95% I-20, 6 mice
# [18] = Group 16: 30 mg/kg IV Q4d × 4 in 5% ET in Saline, 6 mice
# [19] = Group 17: 20 mg/kg IV Q4d × 4 in 5% ET in Saline, 6 mice
# [20] = Group 18: 30 mg/kg IV Q4d × 4 in 5% EC in Saline, 6 mice
# [21] = Group 19: 20 mg/kg IV Q4D × 4 in 5% EC in Saline, 6 mice
smiles,measurement,setting,value
CC(=O)OC12COC1CC(O)C1(C)C(=O)C(OC(=O)C3CCCC3)C3=C(C)C(OC(=O)C(O)C(NC(=O)OC(C)C)c4cccs4)CC(O)(C(OC(=O)c4ccccc4)C21)C3(C)C (centres unmarked) [Compound 9091],IC50,[1],1.9 nM and 1.87 nM
same,T − C,[2]; [6],40.1 days
same,% TGD,[2]; [7],212%
same,No. of CR,[2]; [6],3
same,No. of LTTES,[2]; [6],3
same,No. of PR,[2]; [6],3
same,"Tumor Burden Median(n), Day 59 (MTV)",[2]; [7],56 mm^3 and 56 (6) mm^3
same,Median TTE,[2]; [6],59.0 days
same,T − C,[2]; [8],40.1 days
same,% TGD,[2]; [9],212%
same,No. of CR,[2]; [8],1
same,No. of LTTES,[2]; [8],1
same,No. of PR,[2]; [8],5
same,"Tumor Burden Median(n), Day 59 (MTV)",[2]; [9],148 mm^3 and 148 (6) mm^3
same,Median TTE,[2]; [8],59.0 days
same,survival,"[2]; Panc-1, at both the 120 and 60 mg/kg dose, po qd × 1",100%
same,regression responses,"[2]; Panc-1, at both the 120 and 60 mg/kg dose, po qd × 1, 6 mice per group",six
same,Efficacy Score = 10*(TWd1−TWdn)/TWd1,"[2]; Panc-1, single dose oral 60 mg/kg",8.3
same,Efficacy Score = 10*(TWd1−TWdn)/TWd1,"[2]; Panc-1, single dose oral 120 mg/kg",9.1
same,No. of NTR,[2]; 60 mg/kg,0
same,No. of TR,[2]; 60 mg/kg,0
same,No. of NTR,[2]; 120 mg/kg,0
same,No. of TR,[2]; 120 mg/kg,0
same,IC50,[3],0.6 nM and 0.63 nM
same,# Death NTR,[4]; [10],0
same,# Death TR,[4]; [10],0
same,MDS to 1.0 g ± SEM (n),[4]; Group 6: 60 mg/kg IV QD × 1 in 5% E-95% I-20,51.9 ± 0.0
same,# Death NTR,[4]; [11],0
same,# Death TR,[4]; [11],0
same,# Death NTR,[4]; [12],0
same,# Death TR,[4]; [12],5
same,MDS to 1.0 g ± SEM (n),[4]; Group 8: 60 mg/kg IV QD × 1 in 5% ET in Saline,51.8±
same,# Death NTR,[4]; [13],0
same,# Death TR,[4]; [13],0
same,# Death NTR,[4]; [14],0
same,# Death TR,[4]; [14],0
same,MDS to 1.0 g ± SEM (n),[4]; Group 10: 60 mg/kg IV QD × 1 in 5% EC in Saline,46.0±
same,# Death NTR,[4]; [15],0
same,# Death TR,[4]; [15],0
same,# Death NTR,[4]; [16],0
same,# Death TR,[4]; [16],0
same,# Death NTR,[4]; [17],0
same,# Death TR,[4]; [17],0
same,# Death NTR,[4]; [18],0
same,# Death TR,[4]; [18],0
same,# Death NTR,[4]; [19],0
same,# Death TR,[4]; [19],0
same,# Death NTR,[4]; [20],0
same,# Death TR,[4]; [20],0
same,# Death NTR,[4]; [21],0
same,# Death TR,[4]; [21],0
same,Efficacy Score = 10*(TWd1−TWdn)/TWd1,"[4]; Dose 60, best score 10",8
same,Efficacy Score = 10*(TWd1−TWdn)/TWd1,"[4]; Dose 120, best score 10",8.7
same,"Tox Score, Dose 15 mg","[5]; Oral, dose 15 mg, scale 0 to 10",7.4
same,"Tox Score, Dose 30 mg","[5]; Oral, dose 30 mg, scale 0 to 10",6.7
same,"Tox Score, Dose 40 mg","[5]; Oral, dose 40 mg, scale 0 to 10",4.6
same,"Tox Score, Average","[5]; Oral, average of 3 dose groups",6.2
same,"Tox Score, Weighted Avg","[5]; Oral, weighted by dose",5.8
same,Rat tox score PO,"[5]; PO, summary score, scale 0 to 10",6

# — patent US8003812B2, “C10 cyclopentyl ester substituted taxanes” (priority 2004, dated 2011)
